The record followed here is ChEMBL document CHEMBL3045085, “Structureactivity relationship study of growth inhibitory 2-styrylchromones against carcinoma cells” (2013).

Assay type in all cases: functional
Assay [1] is described as follows: Growth inhibition of Homo sapiens (human) H460 cells after 48 hr by MTT assay. The conditions noted are these: NCI-H460, 48 h. (In general: Formazan colour is commonly taken as a measure of viable cells.)
In assay [2] the test system is AGS. Description: Growth inhibition of Homo sapiens (human) AGS cells after 48 hr by MTT assay.
The test system of assay [3] is HeLa. Put plainly: Growth inhibition of Homo sapiens (human) HeLa cells after 48 hr by MTT assay.
Assay [4] concerns OVCAR. Description: Growth inhibition of Homo sapiens (human) OVCAR cells after 48 hr by MTT assay.
A short description of assay [5]: Growth inhibition of Homo sapiens (human) SKHep cells after 48 hr by MTT assay.
Assay [6] deals with SW-620. Description: Growth inhibition of Homo sapiens (human) SW620 cells after 48 hr by MTT assay. To be noted: SW-620, 48 h.
Assay [7] relates to PC-3. Description: Growth inhibition of Homo sapiens (human) PC3 cells after 48 hr by MTT assay. The conditions noted are these: PC-3, 48 h.

By GI50 is commonly meant the concentration that inhibits growth by half. Read a high GI50 as less potent growth inhibition. For `COc1cccc2c1C(=O)c1c(O)c3c(c(O)c1C2=O)C[C@@](O)(C(=O)CO)C[C@@H]3O[C@H]1C[C@H](N)[C@H](O)[C@H](C)O1` [DOXORUBICIN], the GI50 in assay [1] stood at 110 nM; in assay [2], 20 nM; in assay [3] it was 330 nM; in assay [4], 950 nM; in assay [5] it was 90 nM; in assay [6], 30 nM. This compound registered a GI50 in assay [7] of 1760 nM.
With `O=c1cc(/C=C/c2ccccc2)oc2ccccc12`, the GI50 was more than 40000 nM in assay [1]; more than 40000 nM in assay [2]; 25000 nM in assay [3]; 21000 nM in assay [4]; more than 40000 nM in assay [5].
As for `O=c1cc(/C=C/c2ccc3c(c2)OCO3)oc2ccccc12`, the GI50 in assay [1] is more than 40000 nM; in assay [2], more than 40000 nM; in assay [3] it was 14000 nM; in assay [4], more than 40000 nM; in assay [5], more than 40000 nM.
